Results reported in US20250340574A1, “MODULATORS OF CYSTIC FIBROSIS TRANSMEMBRANE CONDUCTANCE REGULATOR” (Vertex Pharmaceuticals Incorporated, priority 2022, published 2025).
Like-named read-outs stand apart in the source and are kept apart here.

Tests used:
[1] = target: T1, CFTR (F508del/MF-HBE cells) (Homo sapiens, UniProt P13569, DEL508-508); assay: Ussing chamber assay of CFTR-mediated short-circuit currents, Assay D (single concentration of 1 μM); format: cell-based; conditions: with 44 nM potentiator and 18 μM Tezacaftor, 18-24 hours, 20% human serum
T1 construct: human bronchial epithelial (HBE) cells derived from CF subjects heterozygous for F508del and a minimal function CFTR mutation (F508del/MF-HBE); endogenous in cells; host or cells: Primary human bronchial epithelial cells from CF subjects (F508del/MF genotype), differentiated at an air-liquid interface
T1 sequence (P13569 with tags, fused parts or gaps DEL508-508): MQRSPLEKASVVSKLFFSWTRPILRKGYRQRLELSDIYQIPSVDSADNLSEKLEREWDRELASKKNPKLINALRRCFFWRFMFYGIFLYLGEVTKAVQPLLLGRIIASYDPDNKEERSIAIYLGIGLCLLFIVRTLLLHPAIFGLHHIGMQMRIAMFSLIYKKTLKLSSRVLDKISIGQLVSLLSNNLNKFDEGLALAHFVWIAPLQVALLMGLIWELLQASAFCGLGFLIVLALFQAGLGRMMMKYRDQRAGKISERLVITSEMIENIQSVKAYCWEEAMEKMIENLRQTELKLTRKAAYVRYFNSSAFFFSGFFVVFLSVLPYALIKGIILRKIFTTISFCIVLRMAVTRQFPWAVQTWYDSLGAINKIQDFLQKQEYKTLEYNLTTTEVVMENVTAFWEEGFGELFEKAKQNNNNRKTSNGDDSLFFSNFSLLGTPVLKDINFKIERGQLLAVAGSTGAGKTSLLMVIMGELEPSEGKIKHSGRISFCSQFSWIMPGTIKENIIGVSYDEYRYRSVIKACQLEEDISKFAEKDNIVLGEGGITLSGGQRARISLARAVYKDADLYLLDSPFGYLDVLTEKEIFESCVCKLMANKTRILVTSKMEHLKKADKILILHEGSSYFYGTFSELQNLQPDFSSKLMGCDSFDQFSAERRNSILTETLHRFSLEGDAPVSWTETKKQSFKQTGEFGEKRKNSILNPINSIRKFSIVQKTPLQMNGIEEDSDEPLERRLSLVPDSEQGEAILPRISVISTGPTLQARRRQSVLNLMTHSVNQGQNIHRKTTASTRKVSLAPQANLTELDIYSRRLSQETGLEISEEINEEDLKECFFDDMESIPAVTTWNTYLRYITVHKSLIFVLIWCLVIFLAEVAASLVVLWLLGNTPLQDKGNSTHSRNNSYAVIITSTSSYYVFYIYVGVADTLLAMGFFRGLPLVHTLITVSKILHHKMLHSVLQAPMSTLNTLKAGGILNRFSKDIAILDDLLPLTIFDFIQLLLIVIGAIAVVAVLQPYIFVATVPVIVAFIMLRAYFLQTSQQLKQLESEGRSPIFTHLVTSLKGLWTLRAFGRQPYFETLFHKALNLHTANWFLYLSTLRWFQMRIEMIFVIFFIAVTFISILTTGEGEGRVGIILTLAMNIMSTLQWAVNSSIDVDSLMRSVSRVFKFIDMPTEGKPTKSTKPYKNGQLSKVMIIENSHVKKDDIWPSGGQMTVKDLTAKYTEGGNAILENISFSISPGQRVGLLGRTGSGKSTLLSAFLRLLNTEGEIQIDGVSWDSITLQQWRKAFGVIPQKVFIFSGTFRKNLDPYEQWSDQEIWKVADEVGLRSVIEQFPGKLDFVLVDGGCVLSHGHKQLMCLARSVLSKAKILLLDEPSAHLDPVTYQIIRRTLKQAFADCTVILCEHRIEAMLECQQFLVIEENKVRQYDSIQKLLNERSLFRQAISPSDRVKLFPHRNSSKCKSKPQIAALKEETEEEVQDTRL
Procedure, shortened: (§1)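 Short-circuit current was recorded at 37 °C under voltage clamp (0 mV) with amiloride 30 μM apically, forskolin 20 μM activation, then BPO/GlyH-101/inh-172 (20 μM each) to isolate CFTR current. Before recording, corrector exposure lasted 18–24 h with 18 μM tezacaftor, 20% human serum, and 33 nM (dose–response) or 44 nM (1 μM fixed) potentiator, maintained throughout.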

[2] = amide bond, 13-membered ring, CDMT/NMM
[3] = target: T1, CFTR (F508del/MF-HBE cells); assay: Ussing chamber assay of CFTR-mediated short-circuit currents, Assay C (0.026 μM to 25 μM, 6 concentrations); format: cell-based; conditions: with 33 nM potentiator and 18 μM Tezacaftor, 20% human serum; for Emax: read-out: C Max activity (%)
Procedure, shortened: as §1

| D activity at 1 μM (%) [1] | EC50 [3] [µM] | Emax [3] [%] | Compound | further results |
| --- | --- | --- | --- | --- |
|  | 3 to 30 | > 60 | Cc1cccc(C)c1-c1cc2nc(n1)NS(=O)(=O)c1cccc(c1)C(=O)N(Cc1cnc3cc(C(C)(C)C)[nH]c3n1)[C@H](CC1(C)CC1)CO2 [IV-54, (11R)-12-[(6-tert-butyl-5H-pyrrolo[2,3-b]pyrazin-3-yl)methyl]-6-(2,6-dimethylphenyl)-11-[(1-methylcyclopropyl)methyl]-2,2-dioxo-9-oxa-2λ^6-thia-3,5,12,19-tetrazatricyclo[12.3.1.14,8]nonadeca-1(18),4(19),5,7,14,16-hexaen-13-one] | ring closure, yield after HPLC ([2]; from Cc1cccc(C)c1-c1cc(OC[C@@H](CC2(C)CC2)NCc2cnc3cc(C(C)(C)C)[nH]c3n2)nc(NS(=O)(=O)c2cccc(C(=O)O)c2)n1, DMF, 9.99 mM, 25.0 °C, 5.5 h): 44% |
|  | < 1 | > 60 | Cc1cccc(C)c1-c1cc2nc(n1)NS(=O)(=O)c1cccc(c1)C(=O)N(Cc1cnc3cc(C(C)(C)C(F)(F)F)n(C)c3n1)[C@H](CC13CC(C1)C3)CO2 [IV-102, (11R)-11-(1-bicyclo[1.1.1]pentanylmethyl)-6-(2,6-dimethylphenyl)-12-[[5-methyl-6-(2,2,2-trifluoro-1,1-dimethyl-ethyl)pyrrolo[2,3-b]pyrazin-3-yl]methyl]-2,2-dioxo-9-oxa-2λ^6-thia-3,5,12,19-tetrazatricyclo[12.3.1.14,8]nonadeca-1(18),4(19),5,7,14,16-hexaen-13-one] | ring closure, yield after HPLC ([2]; from Cc1cccc(C)c1-c1cc(OC[C@@H](CC23CC(C2)C3)NCc2cnc3cc(C(C)(C)C(F)(F)F)n(C)c3n2)nc(NS(=O)(=O)c2cccc(C(=O)O)c2)n1, DMF, 9.8 mM, 25.0 °C, 4.0 h): 65% |
|  | 1 to 3 | > 60 | Cc1cccc(C)c1-c1cc2nc(n1)NS(=O)(=O)c1cccc(c1)C(=O)N(Cc1cnc3sc(C4CC4)cc3n1)[C@H](CC13CC(C1)C3)CO2 [IV-42, (11R)-11-(1-bicyclo[1.1.1]pentanylmethyl)-12-[(6-cyclopropylthieno[2,3-b]pyrazin-2-yl)methyl]-6-(2,6-dimethylphenyl)-2,2-dioxo-9-oxa-2λ^6-thia-3,5,12,19-tetrazatricyclo[12.3.1.14,8]nonadeca-1(18),4(19),5,7,14,16-hexaen-13-one] | ring closure, yield after HPLC ([2]; from Cc1cccc(C)c1-c1cc(OC[C@@H](CC23CC(C2)C3)NCc2cnc3sc(C4CC4)cc3n2)nc(NS(=O)(=O)c2cccc(C(=O)O)c2)n1, DMF, 8.92 mM, 25.0 °C, 18.0 h): 54% |
|  | < 1 | > 60 | Cc1cccc(C)c1-c1cc2nc(n1)NS(=O)(=O)c1cccc(c1)C(=O)N(Cc1cnc3cc(C(C)(C)C)n(C)c3n1)[C@H](C[C@H]1CCC(C)(C)O1)CO2 [IV-98, (11R)-12-[(6-tert-butyl-5-methyl-pyrrolo[2,3-b]pyrazin-3-yl)methyl]-6-(2,6-dimethylphenyl)-11-[[(2R)-5,5-dimethyltetrahydrofuran-2-yl]methyl]-2,2-dioxo-9-oxa-2λ^6-thia-3,5,12,19-tetrazatricyclo[12.3.1.14,8]nonadeca-1(18),4(19),5,7,14,16-hexaen-13-one] | ring closure, yield after HPLC ([2]; from Cc1cccc(C)c1-c1cc(OC[C@@H](C[C@H]2CCC(C)(C)O2)NCc2cnc3cc(C(C)(C)C)n(C)c3n2)nc(NS(=O)(=O)c2cccc(C(=O)O)c2)n1, DMF, 22.7 mM, 25.0 °C): 58% |

Second part, the molecule before the results:

| Compound | D activity at 1 μM (%) [1] | EC50 [3] [µM] | Emax [3] [%] | further results |
| --- | --- | --- | --- | --- |
| Cc1cccc(C)c1-c1cc2nc(n1)NS(=O)(=O)c1cccc(c1)C(=O)N(Cc1cnc3oc(C4CC4)cc3n1)[C@H](Cc1ccccc1)CO2 [Compound I-191, (11R)-11-Benzyl-12-[(6-cyclopropylfuro[2,3-b]pyrazin-2-yl)methyl]-6-(2,6-dimethylphenyl)-2,2-dioxo-9-oxa-2λ^6-thia-3,5,12,19-tetrazatricyclo[12.3.1.14,8]nonadeca-1(18),4(19),5,7,14,16-hexaen-13-one] | +++ (+++ is >60%) |  |  | ring closure, yield after HPLC ([2]; from Cc1cccc(C)c1-c1cc(OC[C@@H](Cc2ccccc2)NCc2cnc3oc(C4CC4)cc3n2)nc(NS(=O)(=O)c2cccc(C(=O)O)c2)n1, DMSO, 2.75 h): 60% |
| COc1c2nc(nc1-c1c(C)cccc1C)NS(=O)(=O)c1cccc(c1)C(=O)N(Cc1cnc3oc(C(C)C)cc3n1)[C@H](CC(C)(C)C)CC2 [Compound I-157, (11S)-6-(2,6-Dimethylphenyl)-11-(2,2-dimethylpropyl)-12-[(6-isopropylfuro[2,3-b]pyrazin-2-yl)methyl]-7-methoxy-2,2-dioxo-2λ^6-thia-3,5,12,19-tetrazatricyclo[12.3.1.14,8]nonadeca-1(18),4(19),5,7,14,16-hexaen-13-one] | +++ (+++ is >60%) |  |  | ring closure, yield after HPLC ([2]; from COc1c(CC[C@@H](CC(C)(C)C)NCc2cnc3oc(C(C)C)cc3n2)nc(NS(=O)(=O)c2cccc(C(=O)O)c2)nc1-c1c(C)cccc1C, DMF, 11.0 mM, 3.5 h): 62% |
| Cc1cccc(C)c1-c1cc2nc(n1)NS(=O)(=O)c1cccc(c1)C(=O)N(Cc1cnc3oc(C(C)C)nc3n1)[C@H](CC1(C)CC1)CO2 [Compound I-149, (11R)-6-(2,6-Dimethylphenyl)-12-[(2-isopropyloxazolo[4,5-b]pyrazin-5-yl)methyl]-11-[(1-methylcyclopropyl)methyl]-2,2-dioxo-9-oxa-2λ^6-thia-3,5,12,19-tetrazatricyclo[12.3.1.14,8]nonadeca-1(18),4(19),5,7,14,16-hexaen-13-one] | +++ (+++ is >60%) |  |  | ring closure, yield after HPLC ([2]; from Cc1cccc(C)c1-c1cc(OC[C@@H](CC2(C)CC2)NCc2cnc3oc(C(C)C)nc3n2)nc(NS(=O)(=O)c2cccc(C(=O)O)c2)n1, DMF, 23.5 mM, 2.08 h): 40% |
| Cc1cccc(C)c1-c1cc2nc(n1)NS(=O)(=O)c1cccc(c1)C(=O)N(Cc1cnc3oc(C(C)C)c(NC(=O)OC(C)(C)C)c3n1)[C@H](CC1(C)CC1)CO2 [Compound I-210, tert-Butyl N-[2-[[(11R)-6-(2,6-dimethylphenyl)-11-[(1-methylcyclopropyl)methyl]-2,2,13-trioxo-9-oxa-2λ^6-thia-3,5,12,19-tetrazatricyclo[12.3.1.14,8]nonadeca-1(18),4(19),5,7,14,16-hexaen-12-yl]methyl]-6-isopropyl-furo[2,3-b]pyrazin-7-yl]carbamate] | +++ (+++ is >60%) |  |  | ring closure, yield after HPLC ([2]; from Cc1cccc(C)c1-c1cc(OC[C@@H](CC2(C)CC2)NCc2cnc3oc(C(C)C)c(NC(=O)OC(C)(C)C)c3n2)nc(NS(=O)(=O)c2cccc(C(=O)O)c2)n1, DMF, 13.4 mM, 5.5 h): 55% |
| Cc1cccc(C)c1-c1cc2nc(n1)NS(=O)(=O)c1cccc(c1)C(=O)N(Cc1cnc3oc(C4CC4)cc3n1)[C@H](C=C1CCC1)CO2 [Compound I-154, (11R)-11-(cyclobutylidenemethyl)-12-[(6-cyclopropylfuro[2,3-b]pyrazin-2-yl)methyl]-6-(2,6-dimethylphenyl)-2,2-dioxo-9-oxa-2λ^6-thia-3,5,12,19-tetrazatricyclo[12.3.1.14,8]nonadeca-1(18),4(19),5,7,14,16-hexaen-13-one] | +++ (+++ is >60%) |  |  | ring closure, yield after HPLC ([2]; from Cc1cccc(C)c1-c1cc(OC[C@@H](C=C2CCC2)NCc2cnc3oc(C4CC4)cc3n2)nc(NS(=O)(=O)c2cccc(C(=O)O)c2)n1, DMF, 25.1 mM, 2.08 h): 14% |
| Cc1cccc(C)c1-c1cc2nc(n1)NS(=O)(=O)c1cccc(c1)C(=O)N(Cc1nc3cc(C4(C)CC4)oc3cc1F)[C@H](CC1(C)CC1)CO2 [Compound I-234, (11R)-6-(2,6-Dimethylphenyl)-12-[[6-fluoro-2-(1-methylcyclopropyl)furo[3,2-b]pyridin-5-yl]methyl]-11-[(1-methylcyclopropyl)methyl]-2,2-dioxo-9-oxa-2λ^6-thia-3,5,12,19-tetrazatricyclo[12.3.1.14,8]nonadeca-1(18),4(19),5,7,14,16-hexaen-13-one] | +++ (+++ is >60%) |  |  | ring closure, yield after HPLC ([2]; from Cc1cccc(C)c1-c1cc(OC[C@@H](CC2(C)CC2)NCc2nc3cc(C4(C)CC4)oc3cc2F)nc(NS(=O)(=O)c2cccc(C(=O)O)c2)n1, DMF, 25.0 °C): 57% |
| Cc1cccc(C)c1-c1cc2nc(n1)NS(=O)(=O)c1cccc(c1)C(=O)N(Cc1cnc3oc(C(C)C)c(Cl)c3n1)[C@H](CC1(C)CC1)CO2 [Compound I-161, (11R)-12-[(7-chloro-6-isopropyl-furo[2,3-b]pyrazin-2-yl)methyl]-6-(2,6-dimethylphenyl)-11-[(1-methylcyclopropyl)methyl]-2,2-dioxo-9-oxa-2λ^6-thia-3,5,12,19-tetrazatricyclo[12.3.1.14,8]nonadeca-1(18),4(19),5,7,14,16-hexaen-13-one] | +++ (+++ is >60%) |  |  | ring closure, yield after HPLC ([2]; from Cc1cccc(C)c1-c1cc(OC[C@@H](CC2(C)CC2)NCc2cnc3oc(C(C)C)c(Cl)c3n2)nc(NS(=O)(=O)c2cccc(C(=O)O)c2)n1, DMF, 14.9 mM, 19.0 h): 54% |
